pEC50, pIC50: −log10 of the molar value.
What was measured:
FGFR4 = FGFR4 (Homo sapiens, UniProt P22455); experiment: FGFR4 Caliper Assay (in vitro biochemical kinase analysis); conditions: Caliper mobility shift, 65 μM ATP, 30° C. 40 minutes; read-out: Enzymatic activity FGFR4 IC50
Method: I. In Vitro Biochemical Kinase Analysis of FGFR4
FGFR4 Caliper Assay was used in the present invention to determine the inhibitory activities • of the compounds against FGFR4. The specific experimental procedure was as follows: 1. The kinase reaction in the present invention was carried out in a 384-well plate, and […] of FGFR4, 65 μM of ATP and 1 μM of peptide (5 Fluo Ahx KKKKEEIYFFFG NH2) were respectively added into the following reaction system. • 2. A reaction system is a mixture solution of 50 mM HEPES, pH 7.5, 1 mM DTT, 0.02% Tween 20, 0.02% BSA, 0.6% DMSO, 10 mM beta glycerol phosphate and 10 μM sodium orthovanadate and 16 mM MgCl2. • 3. The reaction system was incubated at 30° C. for 40 minutes. • 4. The reaction was terminated by adding a stop solution (100 mM HEPES, pH 7.5, 5% DMSO, 0.1% Caliper coating reagent, 10 mM EDTA and 0.015% Brij35). • 5. The culture plate with the terminated kinase reaction was transferred to the Caliper LC 3000 workstation to read the data, the phosphorylated and unphosphorylated peptides were separated by using the Caliper microfluid migration shift technique, and the analyte was transferred by allowing a constant buffer flow through the chip, the migration of the substrate peptide was monitored by the labeled fluorescent signal, and the kinase activity was calculated by using the amount of the phosphate-based peptide formed. • 6. Finally, IC50 values were determined by non-linear regression analysis of percent inhibition at different compound concentrations. II. FGFR4 Cell Proliferation Experiment

[1] = test system: Huh7 hepatocellular carcinoma cells; experiment: Cell Titer Glo (CTG) cell proliferation experiment; type: cell-based; conditions: Homo sapiens, 72 h, HuH-7 cells, 3 days; for pIC50: concentration leading to absolute half growth inhibition; for pEC50: concentration leading to half maximal growth inhibition
Method: Cell Titer Glo (CTG) experiment was used in the present invention to evaluate the functional effects of the compounds on cell proliferation. Huh7 hepatocellular carcinoma cells (Catalog No. TChU182) from the Chinese Academy of Sciences cell bank were cultured in DMEM with high glucose (Gibco, cat. No. 1773536), 10% fetal bovine serum (Gibco, 10099-141) at 37° C., in a 5% CO2 incubator. Compound-mediated inhibition of cell proliferation/survival was assessed by quantification of cellular ATP levels using CTG reagent (Promega, #G7573). The specific experimental procedure was as follows: • 1. The cells were seeded into a tissue culture medium-treated 96-well plate (Costar #3904) at 3500 cells/well/90 μL of fresh medium; • 2. 10 μL of medium containing a compound concentration of 10 fold of its final test concentration was added; • 3. The dose effect as evaluated by a 5-fold serial dilution of the test compound, starting from 10 μM. • 4. After cells incubation for 3 days at 37° C. in a 5% CO2 atmosphere, the effect of the inhibitor on cell proliferation was quantified after adding 50 μL of CTG and testing with luminescence. • 5. The concentration of the compound (EC50) leading to half maximal growth inhibition and the concentration of compound (Absolute IC50) leading to absolute half growth inhibition were determined using a four-parameter curve fit in Graphpad Prism in a plate reader (M1000, Tecan).

Chain of FGFR4 (P22455 22-802): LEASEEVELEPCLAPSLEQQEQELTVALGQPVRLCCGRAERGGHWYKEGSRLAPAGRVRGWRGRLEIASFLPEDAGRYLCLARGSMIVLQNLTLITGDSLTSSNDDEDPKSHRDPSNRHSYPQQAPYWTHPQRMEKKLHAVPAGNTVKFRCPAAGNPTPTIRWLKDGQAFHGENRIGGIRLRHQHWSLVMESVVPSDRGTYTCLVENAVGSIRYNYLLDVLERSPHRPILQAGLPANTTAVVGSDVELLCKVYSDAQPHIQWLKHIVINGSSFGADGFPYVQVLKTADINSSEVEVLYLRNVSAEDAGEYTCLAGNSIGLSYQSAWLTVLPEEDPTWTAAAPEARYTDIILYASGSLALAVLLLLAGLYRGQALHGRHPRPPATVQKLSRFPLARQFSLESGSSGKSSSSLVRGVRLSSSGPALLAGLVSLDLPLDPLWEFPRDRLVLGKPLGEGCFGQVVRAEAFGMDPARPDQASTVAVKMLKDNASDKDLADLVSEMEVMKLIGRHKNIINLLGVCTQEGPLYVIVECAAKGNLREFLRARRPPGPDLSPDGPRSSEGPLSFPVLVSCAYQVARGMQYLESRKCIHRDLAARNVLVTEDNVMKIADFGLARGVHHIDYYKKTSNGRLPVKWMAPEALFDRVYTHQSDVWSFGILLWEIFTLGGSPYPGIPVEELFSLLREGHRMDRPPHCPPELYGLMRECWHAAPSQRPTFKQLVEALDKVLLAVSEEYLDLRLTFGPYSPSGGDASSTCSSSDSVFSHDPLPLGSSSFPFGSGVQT

Row | Structure (SMILES) | pIC50 (FGFR4) | pIC50 [1] | pEC50 [1]
1 | CN1CCN(Cc2ccc(N(C)C(=O)Nc3cc(NC4CCC(F)(F)C4)c(C#N)cn3)nc2C=O)C(=O)C1 (centres unmarked) [Example 15, 3-(5-cyano-4-((3,3-difluorocyclopentyl)amino)pyridin-2-yl)-1-(6-formyl-5-((4-methyl-2-oxopiperazin-1-yl)methyl)pyridin-2-yl)-1-methylurea] | 8.64 | 7.31 | 7.71
2 | CN1CCN(Cc2ccc(N(C)C(=O)Nc3cc(N4CCC5(CCOC5)C4)c(C#N)cn3)nc2C=O)C(=O)C1 (centres unmarked) [Example 30, 3-(5-cyano-4-(2-oxa-7-azaspiro[4.4]nonan-7-yl)pyridin-2-yl)-1-(6-formyl-5-((4-methyl-2-oxopiperazin-1-yl)methyl)pyridin-2-yl)-1-methylurea] |  | 6.69 | 7.11
3 | CC(C)Sc1cc(NC(=O)N(C)c2ccc(CN3CCN(C)CC3=O)c(C=O)n2)ncc1C#N [Example 34, 3-(5-cyano-4-(isopropylthio)pyridin-2-yl)-1-(6-formyl-5-((4-methyl-2-oxopiperazin-1-yl)methyl)pyridin-2-yl)-1-methylurea] | 8.54 | 6.93 | 7.39
4 | COCCOc1cc(NC(=O)N(C)c2ccc(CN3CCN(C)CC3=O)c(C=O)n2)ncc1C#N [Example 36, 3-(5-cyano-4-(2-methoxyethoxy)pyridin-2-yl)-1-(6-formyl-5-((4-methyl-2-oxopiperazin-1-yl)methyl)pyridin-2-yl)-1-methylurea] | 7.77 | 6.39 | 6.72
5 | CN1CCN(Cc2ccc(N(C)C(=O)Nc3cc(NCC4CCCO4)c(C#N)cn3)nc2C=O)C(=O)C1 (centres unmarked) [Example 21, 3-(5-cyano-4-(((tetrahydrofuran-2-yl)methyl)amino)pyridin-2-yl)-1-(6-formyl-5-((4-methyl-2-oxopiperazin-1-yl)methyl)pyridin-2-yl)-1-methylurea] | 8.10 | 7.26 | 7.64
6 | N#Cc1cnc(NC(=O)C2(c3cccc(C=O)n3)CC2)cc1NC1CC1 [Example 52, N-(5-cyano-4-(cyclopropylamino)pyridin-2-yl)-1-(6-formylpyridin-2-yl)cyclopropane-1-carboxamide] | 7.79 |  | 
7 | COC1CCN(c2cc(NC(=O)N(C)c3ccc(CN4CCN(C)CC4=O)c(C=O)n3)ncc2C#N)C1 (centres unmarked) [Example 17, 3-(5-cyano-4-(3-methoxypyrrolidin-1-yl)pyridin-2-yl)-1-(6-formyl-5-((4-methyl-2-oxopiperazin-1-yl)methyl)pyridin-2-yl)-1-methylurea] | 8.19 | 7.07 | 7.42
8 | CN1CCN(Cc2ccc(N(C)C(=O)Nc3cc(N4CCOCC4)c(C#N)cn3)nc2C=O)C(=O)C1 [Example 24, 3-(5-cyano-4-morpholinopyridin-2-yl)-1-(6-formyl-5-((4-methyl-2-oxopiperazin-1-yl)methyl)pyridin-2-yl)-1-methylurea] | 7.28 | 5.75 | 5.97
9 | COC1(C)CN(c2cc(NC(=O)N(C)c3ccc(CN4CCN(C)CC4=O)c(C=O)n3)ncc2C#N)C1 [Example 11, 3-(5-cyano-4-(3-methoxy-3methylazetidin-1-yl)pyridin-2-yl)-1-(6-formyl-5-((4-methyl-2-oxopiperazin-1-yl)methyl)pyridin-2-yl)-1-methylurea] | 8.16 | 6.75 | 7.09
10 | CN1CCN(Cc2ccc(N(C)C(=O)Nc3cc(NCC4CC4)c(C#N)cn3)nc2C=O)C(=O)C1 [Example 4, 3-(5-cyano-4-((cyclopropylmethyl)amino)pyridin-2-yl)-1-(6-formyl-5-((4-methyl-2-oxopiperazin-1-yl)methyl)pyridin-2-yl)-1-methylurea] | 8.42 | 7.11 | 7.59
11 | CN1CCN(Cc2ccc(N(C)C(=O)Nc3cc(OCC4CC4)c(C#N)cn3)nc2C=O)C(=O)C1 [Example 39, 3-(5-cyano-4-(cyclopropylmethoxy)pyridin-2-yl)-1-(6-formyl-5-((4-methyl-2-oxopiperazin-1-yl)methyl)pyridin-2-yl)-1-methylurea] | 8.47 | 7.00 | 7.31
12 | COC1CC(Nc2cc(NC(=O)N(C)c3ccc(CN4CCN(C)CC4=O)c(C=O)n3)ncc2C#N)C1 (centres unmarked) [Example 8, 3-(5-cyano-4-((3-methoxycyclobutyl)amino)pyridin-2-yl)-1-(6-formyl-5-((4-methyl-2-oxopiperazin-1-yl)methyl)pyridin-2-yl)-1-methylurea] | 8.24 |  | 
13 | CN1CCN(Cc2ccc(N(C)C(=O)Nc3cc(NCCF)c(C#N)cn3)nc2C=O)C(=O)C1 [Example 2, 3-(5-cyano-4-((2-fluoroethyl)amino)pyridin-2-yl)-1-(6-formyl-5-((4-methyl-2-oxopiperazin-1-yl)methyl)pyridin-2-yl)-1-methylurea] | 8.10 |  | 
14 | CN1CCN(Cc2ccc(N(C)C(=O)Nc3cc(NC4CC4)c(C#N)cn3)nc2C=O)C(=O)C1 [Example 1, 3-(5-cyano-4-(cyclopropylamino)pyridin-2-yl)-1-(6-formyl-5-((4-methyl-2-oxopiperazin-1-yl)methyl)pyridin-2-yl)-1-methylurea] | 8.70 | 7.58 | 8.08
15 | CN1CCN(Cc2ccc(N(C)C(=O)Nc3cc(NC4CCOC4)c(C#N)cn3)nc2C=O)C(=O)C1 (centres unmarked) [Example 14, 3-(5-cyano-4-((tetrahydrofuran-3-yl)amino)pyridin-2-yl)-1-(6-formyl-5-((4-methyl-2-oxopiperazin-1-yl)methyl)pyridin-2-yl)-1-methylurea] | 8.24 | 7.24 | 7.70
16 | CCN(C(=O)Nc1cc(NC2CC2)c(C#N)cn1)c1ccc(CN2CCN(C)CC2=O)c(C=O)n1 [Example 51, 3-(5-cyano-4-(cyclopropylamino)pyridin-2-yl)-1-ethyl-1-(6-formyl-5-((4-methyl-2-oxopiperazin-1-yl)methyl)pyridin-2-yl)urea] | 8.85 | 7.19 | 7.57
17 | CN1CCN(Cc2ccc(N(C)C(=O)Nc3cc(NC4CC4)c(I)cn3)nc2C=O)C(=O)C1 [Example 56, 3-(4-(cyclopropylamino)-5-iodopyridin-2-yl)-1-(6-formyl-5-((4-methyl-2-oxopiperazin-1-yl)methyl)pyridin-2-yl)-1-methylurea] | 8.09 | 6.65 | 7.03
18 | CN1CCN(Cc2ccc(N(C)C(=O)Nc3cc(NC4CC(F)(F)C4)c(C#N)cn3)nc2C=O)C(=O)C1 [Example 7, 3-(5-cyano-4-((3,3-difluorocyclobutyl)amino)pyridin-2-yl)-1-(6-formyl-5-((4-methyl-2-oxopiperazin-1-yl)methyl)pyridin-2-yl)-1-methylurea] | 8.55 | 7.20 | 7.69

— patent US11312701B2, “Formylpyridine derivative having FGFR4 inhibitory activity, preparation method therefor and use thereof” (Abbisko Therapeutics Co., Ltd., priority 2017, dated 2022)
